From publication PMC9944328 (Nature Communications, 2023)
Where two headings read alike, the source gives them in different places.

System: SSTR2 mutants
Assay: SSTRs Gi-mediated cAMP inhibition, GloSensor, HEK293, 5 μM forskolin, 15 min room temperature (SSTR2 mutants)
Type: cell-based, human
Set-up: Best-fit Bottom, cAMP inhibition / Best-fit Top, cAMP inhibition / Span, cAMP inhibition / Bottom (best-fit value) / Top (best-fit value) / Span (best-fit value) / Span (best-fit) / Bottom (best-fit) / Top (best-fit) / Best-fit Bottom / Best-fit Top / Best-fit Span / Top / Span: scale not given here
Description: The levels of the intracellular 3′, 5′-cyclic AMP (cAMP) were measured by the GloSensor cAMP assay (Promega) as described in the previous studies[28],[41] which has been widely used. The human full-length SSTRs and mutants were cloned into the pcDNA3.1+ vector with a HA signal sequence followed by a Flag tag at the N-terminus. HEK293 cells (ATCC, CRL-1573) were seeded into 6-well microplates at a density of 1.0 × 10^6 cells/well and cultured for 24 h at 37 °C with 5% CO2. Cells were then co-transfected with SSTR wild-type or mutants and GloSensor plasmids. After 24 h of transfection, the cells were dissociated with TrypLE™ Express Enzyme (1X) (Thermo Fisher Scientific) and collected by centrifugation at 500 × g for 5 min. Then the collected cells were suspended in Hank’s balanced salt solution [HBSS (Thermo Fisher Scientific)] supplemented with […] (YEASEN), and then the suspension cells were seeded into 96-well plates with 90 μl/well. After incubating at room temperature for 40 min, 5 μM forskolin and ligands diluted in HBSS were added to each well and the plates were incubated at room temperature for 15 min. […] were measured using the Synergy H1 microplate reader (BioTek) and the data presented are means of at least three independent experiments.

## C[C@@H](O)[C@@H]1NC(=O)[C@H](CCCCN)NC(=O)[C@@H](Cc2c[nH]c3ccccc23)NC(=O)[C@H](Cc2ccccc2)NC(=O)[C@@H](NC(=O)[C@H](N)Cc2ccccc2)CSSC[C@@H](C(=O)N[C@H](CO)[C@@H](C)O)NC1=O [octreotide]
SSTR2 I195A-1, run 1
  Best-fit Top, cAMP inhibition: 99.51
  LogEC50, cAMP inhibition: -8.167
  Span, cAMP inhibition: 98.37
SSTR2 I195A-1, run 1, read-out: EC50, cAMP inhibition
  EC50: 6.8 nM
SSTR2 I195A-2, run 2
  Best-fit Bottom, cAMP inhibition: -0.2331
  Best-fit Top, cAMP inhibition: 94.69
  LogEC50, cAMP inhibition: -8.189
  Span, cAMP inhibition: 94.92
SSTR2 I195A-2, run 2, read-out: EC50, cAMP inhibition
  EC50: 6.47 nM
SSTR2 I195A-3, run 3
  Best-fit Bottom, cAMP inhibition: 2.536
  Best-fit Top, cAMP inhibition: 107
  LogEC50, cAMP inhibition: -8.29
  Span, cAMP inhibition: 104.4
SSTR2 I195A-3, run 3, read-out: EC50, cAMP inhibition
  EC50: 5.13 nM
SSTR2 L99A-1, run 1
  Best-fit Bottom, cAMP inhibition: -0.05878
  Best-fit Top, cAMP inhibition: 83.27
  LogEC50, cAMP inhibition: -8.764
  Span, cAMP inhibition: 83.33
SSTR2 L99A-1, run 1, read-out: EC50, cAMP inhibition
  EC50: 1.72 nM
SSTR2 L99A-2, run 2
  Best-fit Bottom, cAMP inhibition: 3.887
  Best-fit Top, cAMP inhibition: 89.82
  LogEC50, cAMP inhibition: -8.724
  Span, cAMP inhibition: 85.94
SSTR2 L99A-2, run 2, read-out: EC50, cAMP inhibition
  EC50: 1.89 nM
SSTR2 L99A-3, run 3
  Best-fit Bottom, cAMP inhibition: 6.223
  Best-fit Top, cAMP inhibition: 104
  LogEC50, cAMP inhibition: -9.836
  Span, cAMP inhibition: 97.82
SSTR2 L99A-3, run 3, read-out: EC50, cAMP inhibition
  EC50: 0.146 nM
SSTR2 Q102A-1, run 1
  Best-fit Bottom, cAMP inhibition: 2.423
  Best-fit Top, cAMP inhibition: 108.7
  LogEC50, cAMP inhibition: -7.926
  Span, cAMP inhibition: 106.2
SSTR2 Q102A-1, run 1, read-out: EC50, cAMP inhibition
  EC50: 11.9 nM
SSTR2 Q102A-2, run 2
  Best-fit Bottom, cAMP inhibition: 0.4721
  Best-fit Top, cAMP inhibition: 108.9
  LogEC50, cAMP inhibition: -7.92
  Span, cAMP inhibition: 108.4
SSTR2 Q102A-2, run 2, read-out: EC50, cAMP inhibition
  EC50: 12 nM
SSTR2 Q102A-3, run 3
  Best-fit Bottom, cAMP inhibition: 3.028
  Best-fit Top, cAMP inhibition: 105.6
  LogEC50, cAMP inhibition: -7.863
  Span, cAMP inhibition: 102.6
SSTR2 Q102A-3, run 3, read-out: EC50, cAMP inhibition
  EC50: 13.7 nM
SSTR2 T194A-1, run 1
  Best-fit Top, cAMP inhibition: 84.79
  LogEC50, cAMP inhibition: -7.026
  Span, cAMP inhibition: 77.01
SSTR2 T194A-1, run 1, read-out: EC50, cAMP inhibition
  EC50: 94.2 nM
SSTR2 T194A-2, run 2
  Best-fit Top, cAMP inhibition: 94.26
  LogEC50, cAMP inhibition: -7.558
  Span, cAMP inhibition: 87.81
SSTR2 T194A-2, run 2, read-out: EC50, cAMP inhibition
  EC50: 27.7 nM
SSTR2 T194A-3, run 3
  Best-fit Top, cAMP inhibition: 95.49
  LogEC50, cAMP inhibition: -7.626
  Span, cAMP inhibition: 91.25
SSTR2 T194A-3, run 3, read-out: EC50, cAMP inhibition
  EC50: 23.7 nM
SSTR2 V103A-1, run 1
  Best-fit Bottom, cAMP inhibition: 3.112
  Best-fit Top, cAMP inhibition: 97.5
  LogEC50, cAMP inhibition: -8.546
  Span, cAMP inhibition: 94.39
SSTR2 V103A-1, run 1, read-out: EC50, cAMP inhibition
  EC50: 2.85 nM
SSTR2 V103A-2, run 2
  Best-fit Bottom, cAMP inhibition: -14.84
  Best-fit Top, cAMP inhibition: 85.83
  LogEC50, cAMP inhibition: -8.054
  Span, cAMP inhibition: 100.7
SSTR2 V103A-2, run 2, read-out: EC50, cAMP inhibition
  EC50: 8.84 nM
SSTR2 V103A-3, run 3
  Best-fit Bottom, cAMP inhibition: -3.777
  Best-fit Top, cAMP inhibition: 89.06
  LogEC50, cAMP inhibition: -7.947
  Span, cAMP inhibition: 92.84
SSTR2 V103A-3, run 3, read-out: EC50, cAMP inhibition
  EC50: 11.3 nM
SSTR2 Y50A-1, run 1
  Best-fit Bottom, cAMP inhibition: 9.945
  Best-fit Top, cAMP inhibition: 106.2
  LogEC50, cAMP inhibition: -9.897
  Span, cAMP inhibition: 96.25
SSTR2 Y50A-2, run 2
  Best-fit Bottom, cAMP inhibition: -3.529
  Best-fit Top, cAMP inhibition: 103.6
  LogEC50, cAMP inhibition: -10.54
  Span, cAMP inhibition: 107.2
SSTR2 Y50A-2, run 2, read-out: EC50, cAMP inhibition
  EC50: 0.0288 nM
SSTR2 Y50A-3, run 3
  Best-fit Bottom, cAMP inhibition: 9.945
  Best-fit Top, cAMP inhibition: 106.2
  LogEC50, cAMP inhibition: -9.897
  Span, cAMP inhibition: 96.25
SSTR2 Y50A-3, run 3, read-out: EC50, cAMP inhibition
  EC50: 0.127 nM
Suppl. Tables 4/5, SSTR2 T194(45.51)H, n=3
  Emax: 88.27±7.62 %WT SSTR2
Suppl. Tables 4/5, SSTR2 V103(2.64)N, n=3
  Emax: 94.00±3.65 %WT SSTR2
Suppl. Tables 4/5, SSTR2 V103(2.64)N, n=3, read-out: EC50
  EC50: 0.23 nM
T194(45.51)H in SSTR2
  Receptor activation of mutant: significantly reduced receptor activation
T194A-1, run 1
  Bottom (best-fit value): 7.78
T194A-2, run 2
  Bottom (best-fit value): 6.447
T194A-3, run 3
  Bottom (best-fit value): 4.244
T287A-1, run 1
  Bottom (best-fit value): 2.841
  LogEC50 (best-fit value): -9.206
  Span (best-fit value): 86.99
  Top (best-fit value): 89.83
T287A-1, run 1, read-out: EC50 (best-fit value)
  EC50: 0.623 nM
T287A-2, run 2
  Bottom (best-fit value): -10.83
  LogEC50 (best-fit value): -9.285
  Span (best-fit value): 118.8
  Top (best-fit value): 108
T287A-2, run 2, read-out: EC50 (best-fit value)
  EC50: 0.519 nM
T287A-3, run 3
  Bottom (best-fit value): 2.734
  LogEC50 (best-fit value): -9.182
  Span (best-fit value): 94.95
  Top (best-fit value): 97.68
T287A-3, run 3, read-out: EC50 (best-fit value)
  EC50: 0.658 nM
V103(2.64)N mutant of SSTR2
  EC50 of mutant versus wild-type: retained a similar EC50 as wild-type receptor
W188A-1, run 1
  Bottom (best-fit value): -1.717
  LogEC50 (best-fit value): -9.896
  Span (best-fit value): 106.4
  Top (best-fit value): 104.7
W188A-1, run 1, read-out: EC50 (best-fit value)
  EC50: 0.127 nM
W188A-2, run 2
  Bottom (best-fit value): 1.331
  LogEC50 (best-fit value): -10.14
  Span (best-fit value): 108.6
